Several values for one entry are separate records, joined by “and”; a condition that tells them apart may be missing. Identical values can stand only once. Bridge positions count the residues as written; N and C are the ends. Square brackets hold non-standard residues; d marks the D form. Peptide text beside a SMILES is read from it. αMeY = C[C@](N)(Cc1ccc(O)cc1)C(=O)O; Nle = CCCC[C@H](N)C(=O)O
These molecules were tested against T1, Growth hormone-releasing hormone receptor (Rattus norvegicus) (UniProt Q02644) (assay: Potency for growth hormone releasing hormone receptor (GHRFR) relative to human GHRH(1-40)OH- in the rat pituitary cell culture assay). Conditions: Pituitary gland cell.
T1 sequence (whole entry): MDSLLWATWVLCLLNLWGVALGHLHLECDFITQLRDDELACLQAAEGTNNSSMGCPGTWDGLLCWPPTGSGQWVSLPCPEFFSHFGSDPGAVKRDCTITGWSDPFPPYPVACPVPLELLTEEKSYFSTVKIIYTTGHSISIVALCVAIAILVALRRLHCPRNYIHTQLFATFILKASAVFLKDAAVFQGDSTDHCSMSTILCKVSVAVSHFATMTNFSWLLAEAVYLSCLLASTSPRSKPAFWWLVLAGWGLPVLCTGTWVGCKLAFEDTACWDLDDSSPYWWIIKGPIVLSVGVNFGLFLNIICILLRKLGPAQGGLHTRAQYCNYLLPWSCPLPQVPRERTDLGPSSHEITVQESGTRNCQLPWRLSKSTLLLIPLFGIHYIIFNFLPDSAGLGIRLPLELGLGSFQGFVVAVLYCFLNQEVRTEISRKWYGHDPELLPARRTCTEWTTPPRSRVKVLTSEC
Format: functional, cell-based

Relative potency | Molecule
1.6 and 1.4 | H-YADAIFTNSYRKVLGQLAARKLLQDIMSR-NH2
0.01 | H-AADAIFTNSYRKVLGQLSARKLLQDIMSR-NH2
0.59 | H-YADAIFTNSYRKVLGQLSARKLLQDIMSA-NH2
0.01 | H-YADAIFTNSYRKVAGQLSARKLLQDIMSR-NH2
1.1 | CCCC[C@H]1NC(=O)[C@H]([C@@H](C)CC)NC(=O)[C@@H](NC(=O)[C@H](Cc2c[nH]cn2)NC(=O)[C@H](CC(C)C)NC(=O)[C@H](CC(C)C)NC(=O)[C@H](CCCCN)NC(=O)[C@H](CCCN=C(N)N)NC(=O)[C@H](Cc2ccccc2)NC(=O)[C@@H](NC(=O)[C@H](CC(C)C)NC(=O)[C@H](CCC(N)=O)NC(=O)[C@H](C)NC(=O)[C@H](CC(C)C)NC(=O)[C@@H](NC(=O)[C@H](CCCN=C(N)N)NC(=O)[C@H](CCCN=C(N)N)NC(=O)[C@H](Cc2ccc(O)cc2)NC(=O)[C@H](CO)NC(=O)[C@H](CO)NC(=O)[C@@H](NC(=O)[C@H](Cc2ccccc2)NC(=O)[C@@H](NC(=O)[C@H](C)NC(=O)[C@H](CC(=O)O)NC(=O)[C@H](C)NC(=O)[C@@](C)(N)Cc2c[nH]cn2)[C@@H](C)CC)[C@@H](C)O)[C@@H](C)CC)[C@@H](C)CC)CSSC[C@H](C(N)=O)NC(=O)[C@H](CC(N)=O)NC1=O
1 | CC[C@H](C)[C@H](NC(=O)[C@H](C)NC(=O)[C@H](CC(=O)O)NC(=O)[C@H](C)NC(=O)[C@@H](N)Cc1ccc(O)cc1)C(=O)N[C@@H](Cc1ccccc1)C(=O)N[C@H](C(=O)N[C@@H](CC(N)=O)C(=O)N[C@@H](CO)C(=O)N[C@@H](Cc1ccc(O)cc1)C(=O)N[C@@H](CCCN=C(N)N)C(=O)N[C@@H](CCCCN)C(=O)N[C@H](C(=O)N[C@@H](CC(C)C)C(=O)NCC(=O)N[C@@H](CCC(N)=O)C(=O)N[C@@H](CC(C)C)C(=O)N[C@@H](CO)C(=O)N[C@@H](C)C(=O)N[C@@H](CCCN=C(N)N)C(=O)N[C@@H](CCCCN)C(=O)N[C@@H](CC(C)C)C(=O)N[C@@H](CC(C)C)C(=O)N[C@@H](CCC(N)=O)C(=O)N[C@@H](CC(=O)O)C(=O)N[C@H](C(=O)N[C@@H](CCSC)C(=O)N[C@@H](CO)C(=O)N[C@@H](CCCN=C(N)N)C(=O)N[C@@H](CCC(N)=O)C(=O)N[C@H](CCC(N)=O)C(=O)NCC(=O)N[C@@H](CCC(=O)O)C(=O)N[C@@H](CO)C(=O)N[C@@H](CC(N)=O)C(=O)N[C@@H](CCC(N)=O)C(=O)N[C@@H](CCC(=O)O)C(=O)N[C@@H](CCCN=C(N)N)C(=O)NCC(=O)N[C@@H](C)C(=O)O)[C@@H](C)CC)C(C)C)[C@@H](C)O
0.026 | CC[C@H](C)[C@H](NC(=O)[C@H](C)NC(=O)[C@H](CC(=O)O)NC(=O)[C@H](C)NC(=O)[C@@H](N)Cc1ccc(O)cc1)C(=O)N[C@@H](Cc1ccccc1)C(=O)N[C@H](C(=O)N[C@@H](CC(N)=O)C(=O)N[C@@H](CO)C(=O)N[C@@H](Cc1ccc(O)cc1)C(=O)N[C@@H](CCCN=C(N)N)C(=O)N[C@@H](CCCCN)C(=O)N[C@H](C(=O)N[C@H]1CCC(=O)NCCCC[C@@H](C(=O)N[C@@H](CO)C(=O)N[C@@H](C)C(=O)N[C@@H](CCCN=C(N)N)C(=O)N[C@@H](CCCCN)C(=O)N[C@@H](CC(C)C)C(=O)N[C@@H](CC(C)C)C(=O)N[C@@H](CCC(N)=O)C(=O)N[C@@H](CC(=O)O)C(=O)N[C@H](C(=O)N[C@@H](CCSC)C(=O)N[C@@H](CO)C(=O)N[C@@H](CCCN=C(N)N)C(N)=O)[C@@H](C)CC)NC(=O)[C@H](CCC(N)=O)NC(=O)CNC1=O)C(C)C)[C@@H](C)O (H-YADAIFTNSYRKVEGQKSARKLLQDIMSR-NH2; lactam 14-17)
2.6 | H-YADAIFTNAYRKVLGQLSARKLLQDIMSR-NH2
0.29 | H-YADAIFANSYRKVLGQLSARKLLQDIMSR-NH2
5.8 | CCCC[C@H](NC(=O)[C@@H](NC(=O)[C@H](CC(=O)O)NC(=O)[C@H](CCC(N)=O)NC(=O)[C@H](CC(C)C)NC(=O)[C@H](CC(C)C)NC(=O)[C@H](CCCCN)NC(=O)[C@H](CCCN=C(N)N)NC(=O)[C@H](C)NC(=O)[C@H](CO)NC(=O)[C@H](CC(C)C)NC(=O)[C@H](CCC(N)=O)NC(=O)[C@H](C)NC(=O)[C@H](CC(C)C)NC(=O)[C@@H](NC(=O)[C@H](CCCCN)NC(=O)[C@H](CCCN=C(N)N)NC(=O)[C@H](Cc1ccc(O)cc1)NC(=O)[C@H](CO)NC(=O)[C@H](CC(N)=O)NC(=O)[C@@H](NC(=O)[C@H](Cc1ccccc1)NC(=O)[C@@H](NC(=O)[C@H](C)NC(=O)[C@H](CC(=O)O)NC(=O)[C@H](C)NC(=O)[C@@](C)(N)Cc1ccc(O)cc1)[C@@H](C)CC)[C@@H](C)O)C(C)C)[C@@H](C)CC)C(=O)N[C@@H](CO)C(=O)N[C@@H](CCCN=C(N)N)C(N)=O (H-[αMeY]ADAIFTNSYRKVLAQLSARKLLQDI[Nle]SR-NH2)
1.2 | CC[C@H](C)[C@H](NC(=O)[C@H](C)NC(=O)[C@H](CC(=O)O)NC(=O)[C@H](C)NC(=O)[C@@H](N)Cc1ccc(O)cc1)C(=O)N[C@@H](Cc1ccccc1)C(=O)N[C@H](C(=O)N[C@@H](CC(N)=O)C(=O)N[C@@H](CO)C(=O)N[C@@H](Cc1ccc(O)cc1)C(=O)N[C@@H](CCCN=C(N)N)C(=O)N[C@H]1CCC(=O)NCCCC[C@H](C(=O)N[C@H](CCC(N)=O)C(=O)N[C@H](CC(C)C)C(=O)N[C@H](CO)C(=O)N[C@H](C)C(=O)N[C@@H](CCCN=C(N)N)C(=O)N[C@@H](CCCCN)C(=O)N[C@@H](CC(C)C)C(=O)N[C@@H](CC(C)C)C(=O)N[C@@H](CCC(N)=O)C(=O)N[C@@H](CC(=O)O)C(=O)N[C@H](C(=O)N[C@@H](CCSC)C(=O)N[C@@H](CO)C(=O)N[C@@H](CCCN=C(N)N)C(N)=O)[C@@H](C)CC)NC(=O)[C@@H](CC(C)C)NC(=O)[C@H](C(C)C)NC1=O)[C@@H](C)O
2.8 | CC[C@H](C)[C@H](NC(=O)[C@H](C)NC(=O)[C@H](CC(=O)O)NC(=O)[C@H](C)NC(=O)[C@@H](N)Cc1ccc(O)cc1)C(=O)N[C@@H](Cc1ccccc1)C(=O)N[C@H](C(=O)N[C@@H](CC(N)=O)C(=O)N[C@@H](CO)C(=O)N[C@@H](Cc1ccc(O)cc1)C(=O)N[C@@H](CCCN=C(N)N)C(=O)N[C@@H](CCCCN)C(=O)N[C@H](C(=O)N[C@@H](CC(C)C)C(=O)NCC(=O)N[C@H]1CCC(=O)NCCCC[C@H](C(=O)N[C@@H](CCCN=C(N)N)C(=O)N[C@@H](CCCCN)C(=O)N[C@@H](CC(C)C)C(=O)N[C@@H](CC(C)C)C(=O)N[C@@H](CCC(N)=O)C(=O)N[C@@H](CC(=O)O)C(=O)N[C@H](C(=O)N[C@@H](CCSC)C(=O)N[C@@H](CO)C(=O)N[C@@H](CCCN=C(N)N)C(N)=O)[C@@H](C)CC)NC(=O)[C@@H](CO)NC(=O)[C@H](CC(C)C)NC1=O)C(C)C)[C@@H](C)O
0.39 | H-YADAIFTNSYRKVLGQASARKLLQDIMSR-NH2
1.5 | H-YADAIFTNSYRKVLGALSARKLLQDIMSR-NH2
2.38 | CCCC[C@H](NC(=O)[C@@H](NC(=O)[C@H](CC(=O)O)NC(=O)[C@H](CCC(N)=O)NC(=O)[C@H](CC(C)C)NC(=O)[C@H](CC(C)C)NC(=O)[C@H](CCCCN)NC(=O)[C@H](CCCN=C(N)N)NC(=O)[C@H](C)NC(=O)[C@H](CO)NC(=O)[C@H](CC(C)C)NC(=O)[C@H](CCC(N)=O)NC(=O)CNC(=O)[C@H](CC(C)C)NC(=O)[C@@H](NC(=O)[C@H](CCCCN)NC(=O)[C@H](CCCN=C(N)N)NC(=O)[C@H](Cc1ccc(O)cc1)NC(=O)[C@H](CO)NC(=O)[C@H](CC(N)=O)NC(=O)[C@@H](NC(=O)[C@H](Cc1ccccc1)NC(=O)[C@@H](NC(=O)[C@H](C)NC(=O)[C@H](CC(=O)O)NC(=O)[C@H](C)NC(=O)[C@@H](N)Cc1ccc(O)cc1)[C@@H](C)CC)[C@@H](C)O)C(C)C)[C@@H](C)CC)C(=O)N[C@@H](CO)C(=O)N[C@@H](CCCN=C(N)N)C(N)=O
0.07 | H-YADAIFTNSYRKVLGQLSARKLAQDIMSR-NH2
1.3 | CC[C@H](C)[C@H](NC(=O)[C@H](C)NC(=O)[C@H](CC(=O)O)NC(=O)[C@H](C)NC(=O)[C@@H](N)Cc1ccc(O)cc1)C(=O)N[C@@H](Cc1ccccc1)C(=O)N[C@H](C(=O)N[C@@H](CC(N)=O)C(=O)N[C@@H](CO)C(=O)N[C@@H](Cc1ccc(O)cc1)C(=O)N[C@@H](CCCN=C(N)N)C(=O)N[C@@H](CCCCN)C(=O)N[C@H](C(=O)N[C@@H](CC(C)C)C(=O)NCC(=O)N[C@@H](CCC(N)=O)C(=O)N[C@@H](CC(C)C)C(=O)N[C@@H](CO)C(=O)N[C@@H](C)C(=O)N[C@H](CCCN=C(N)N)C(=O)N[C@H](CCCCN)C(=O)N[C@H](CC(C)C)C(=O)N[C@H](CC(C)C)C(=O)N[C@@H]1CCC(=O)NCCCC[C@@H](C(=O)N[C@@H](CO)C(=O)N[C@@H](CCCN=C(N)N)C(N)=O)NC(=O)[C@H]([C@@H](C)CC)NC(=O)[C@@H](CC(=O)O)NC1=O)C(C)C)[C@@H](C)O
1.9 and 4.4 | CCCC[C@H]1NC(=O)[C@H]([C@@H](C)CC)NC(=O)[C@H](NC(=O)[C@H](Cc2c[nH]cn2)NC(=O)[C@H](CC(C)C)NC(=O)[C@H](CC(C)C)NC(=O)[C@H](CCCCN)NC(=O)[C@H](CCCN=C(N)N)NC(=O)[C@H](Cc2ccccc2)NC(=O)[C@@H](NC(=O)[C@H](CC(C)C)NC(=O)[C@H](CCC(N)=O)NC(=O)[C@H](C)NC(=O)[C@H](CC(C)C)NC(=O)[C@@H](NC(=O)[C@H](CCCN=C(N)N)NC(=O)[C@H](CCCN=C(N)N)NC(=O)[C@H](Cc2ccc(O)cc2)NC(=O)[C@H](CO)NC(=O)[C@H](CO)NC(=O)[C@@H](NC(=O)[C@H](Cc2ccccc2)NC(=O)[C@@H](NC(=O)[C@H](C)NC(=O)[C@H](CC(=O)O)NC(=O)[C@H](C)NC(=O)[C@@](C)(N)Cc2c[nH]cn2)[C@@H](C)CC)[C@@H](C)O)[C@@H](C)CC)[C@@H](C)CC)CSSC[C@@H](C(N)=O)NC(=O)[C@H](CC(N)=O)NC1=O
0.01 | H-YADAIFTNSARKVLGQLSARKLLQDIMSR-NH2
5.6 | H-YADAIFTNSYRKVLAQLSARKLLQDIMSR-NH2

— ChEMBL document CHEMBL1131484, “Human growth hormone-releasing hormone hGHRH(1-29)-NH2: systematic structure-activity relationship studies” (J Med Chem, 1998)
